Data: paper PMC2837410, “Structural Basis of Cell Wall Cleavage by a Staphylococcal Autolysin” (PLoS Pathogens, 2010)
Where a chain is given by its changes, count along the chain named.

Assays:
[1] = tested on: wt amidase; settings: chelating agents likely remove the zinc ion; cited from earlier work
Text: In order to determine whether amino acids in the vicinity of the zinc ion are required for enzymatic activity, residues H60, H177 and D179 were separately mutated to alanine. All three mutant proteins were expressed and purified to homogeneity. None of them has lytic activity in zymogram gels with heat-inactivated S. aureus cells, whereas the wild type (wt) protein is able to lyse cell walls efficiently (Figure 4A). Similar results were obtained with lysis assays using purified S. aureus PGN (Figure 4B). Our results therefore provide evidence for a critical role of the zinc ion and its surroun ...

[2] = target: T1, AmiE (Staphylococcus epidermidis, UniProt O33635); test: Digestion assay with modified AmiE substrates (Mca substrate derivatives); type: biochemical; settings: 70 µM substrate, 7.2 µM AmiE, 37°C, 50 mM sodium phosphate buffer pH 7.2, 6 h; stopped with 1% TFA; RP-HPLC C-18, UV 214 nm
T1 construct: A DNA fragment coding for amino acids 303 to 516 of the atlE gene product; GST (N, cleaved yes); made in house; host or cells: Escherichia coli BL21 (DE3)
T1 sequence (O33635 303-516): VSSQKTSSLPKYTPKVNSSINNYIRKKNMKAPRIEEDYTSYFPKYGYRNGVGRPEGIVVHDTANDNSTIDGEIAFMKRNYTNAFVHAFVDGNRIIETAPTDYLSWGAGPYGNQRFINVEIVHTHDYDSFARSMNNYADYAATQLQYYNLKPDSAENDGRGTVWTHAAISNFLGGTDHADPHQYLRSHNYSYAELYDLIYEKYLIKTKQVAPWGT
Experimental: The five substrates, each at a concentration of 70 µM, were processed by 7.2 µM AmiE at 37°C in digestion buffer (50 mM sodium phosphate buffer, pH 7.2). After 1, 3 and 6 h, the reaction was stopped by adding trifluoroacetic acid to a final concentration of 1%. Decrease of the initial substrate and formation of the Mca product were analyzed by analytical RP-HPLC using a binary HPLC system (Shimadzu, Tokyo, Japan) with a UV detector, a Nucleosil C-18 column (5 µm particle size, 150×2 mm) from Dr Maisch GmbH (Tuebingen, Germany) and a two solvent system: (A) 0.055% (v/v) TFA in water and (B) 0.05% TFA in 80% acetonitrile in water. The substrate was well separated from the generated cleavage product Mca, and was quantified at 214 nm.

[3] = target: T2, AmiE wt (Staphylococcus epidermidis, UniProt O33635); test: MTP digestion assay (cleavage of PGN-derived ligands), wt enzyme; type: biochemical; settings: 10 µg protein + 0.1 mg ligand in 10 µl 50 mM Tris/HCl pH 8.0, 150 mM NaCl; 72 h at 37°C; products analysed by HPLC and ESI-MS
T2 construct: A DNA fragment coding for amino acids 303 to 516 of the atlE gene product; GST (N, cleaved yes); made in house; host or cells: Escherichia coli BL21 (DE3)
T2 sequence (O33635 303-516): T1 sequence (O33635 303-516)
Experimental: (§1) To determine the minimal PGN sequence that can still be cleaved by AmiE, we performed cleavage assays with three PGN-derived compounds: MTP, N-acetylmuramyl-L-alanyl-D-iso-glutamine (MDP), and N-acetyl-D-glucosaminyl-(1,4)-N-acetylmuramyl-L-alanyl-D-iso-glutamine (GMDP). MDP and GDMP were purchased from Sigma and Calbiochem, respectively, whereas MTP was synthesized as described. All ligands were incubated with the wt protein for 72 h at 37°C, followed by analysis of products with HPLC and ESI mass spectrometry. […] The m/z profile of the H177A mutant is dominated by peaks at m/z 621 and 649 (Figure 5, right). The latter peak represents the MTP educt plus an unknown additional mass, which probably originates from the synthesis. Both peaks are replaced by peaks at m/z 346 and 374 in the profile for the wt protein (Figure 5, left). The first peak corresponds to the expected mass of the cleaved peptide stem while the second one is the digestion product of the compound with the higher mass. We conclude that cleavage by AmiE requires the presence of a third amino acid in the peptide stem. As the lysine is quite distant from the active site, it is most likely not required for the catalytic reaction itself but likely serves to anchor the ligand in the binding site. Similar cleavage results have previously been obtained for the catalytically active PGRP-L protein, which also requires MTP for cleavage.
For each assay, 10 µg of wt or mutant protein and 0.1 mg of the appropriate ligand were incubated in 10 µl gel filtration buffer (50 mM Tris/HCl pH 8.0, 150 mM NaCl). The reaction was stopped after 72 h by adding 100 µl acetonitrile with 0,05% (v/v) formic acid. The sample was then frozen at -20°C until used for ESI-MS.

[4] = target: T3, AmiE H177A (Staphylococcus epidermidis, UniProt O33635, H479A); test: MTP digestion assay, inactive mutant (negative control); type: biochemical; settings: 10 µg protein + 0.1 mg ligand in 10 µl 50 mM Tris/HCl pH 8.0, 150 mM NaCl; 72 h; ESI-MS
T3 construct: A DNA fragment coding for amino acids 303 to 516 of the atlE gene product; GST (N, cleaved yes); made in house; host or cells: Escherichia coli
T3 sequence (O33635 303-516 H479A): T1 sequence (O33635 303-516) with H177A
Experimental: as §1, with “Similar cleavage results have previously been obtained for the catalytically active PGRP-L protein, which also requires MTP for cleavage.” left out

Question: For `O=C(O)CN(CCN(CC(=O)O)CC(=O)O)CC(=O)O` [EDTA], which “effect of chelating agent on activity of the wt amidase” value [1] is on record?
Answer: loss of activity

Question: With `c1cnc2c(c1)ccc1cccnc12` [phenanthroline] as the molecule, how does the “effect of chelating agent on activity of the wt amidase” value [1] read?
Answer: loss of activity

Question: With “Mca-Ala-D-iGln-Ala-D-Ala-Arg-OH [Ala-substrate]” as the molecule, how does the “amount of substrate cleaved after 6 h” value [2] read?
Answer: Approximately 10%

Question: For “Mca-Ala-D-iGln-Lys-D-Ala-Arg-OH [Lys-substrate]”, which “amount of substrate cleaved after 6 h” value [2] is on record?
Answer: almost half

Question: Which “cleavage of ligand by the wt enzyme” value [3] does the source give for “N-acetyl-D-glucosaminyl-(1,4)-N-acetylmuramyl-L-alanyl-D-iso-glutamine [GMDP]” here?
Answer: neither MDP nor GMDP are cleaved

Question: Which “cleavage of ligand by the wt enzyme” value [3] does the source give for “N-acetylmuramyl-L-alanyl-D-iso-glutamine [MDP]” here?
Answer: neither MDP nor GMDP are cleaved

Question: Which “cleavage of ligand by the H177A mutant” value [4] does the source give for “N-acetylmuramyl-L-alanyl-D-iso-glutamyl-L-lysine [MTP]” here?
Answer: does not cleave

Question: And the “cleavage of ligand by the wt enzyme” value [3]?
Answer: cleaved into two fragments
